{"source": "patent US20100022562A1", "about": "“Use of Plant Growth Regulators to Reduce Abscisic Acid Related Plant Leaf Yellowing” (priority 2008, published 2010)", "key": {"[1]": {"system": "Pansy plants", "assay": "Pansy shelf life under drought (daily wilting rating, sales index)", "type": "in vivo", "procedure": "All studies were conducted in the greenhouse at the research farm of Valent BioSciences Corporation (Long Grove, Ill.). Pansy plants were obtained either from local retailers as mature plants, or plugs from wholesale nurseries. Plugs of Pansy plants were transplanted into an 18-cell flat filled with Promix BX (available from Premier Horticulture Inc. Quakertown, Pa.) and grown for about 30 days prior to treatment. During growing periods, plants received daily irrigation and weekly fertilizer (1 g/L all purpose fertilizer 20-20-20, The Scotts Company, Marysville, Ohio).\n(§1) Uniform plants were selected for the study. Prior to chemical treatment, plants were saturated with water and then drained for about two hours. A total of 20 mL chemical solution, which is equivalent to about 10% of the cell volume, was applied to each plant with 3 mL solution foliar applied to canopy and 17 mL solution drench applied to root zone. Unless specified, watering of plants was stopped after chemical treatment.\n(§2) After chemical treatment, plants were arranged in a randomized complete block experimental design. The plants were rated daily for the extent of wilting on a scale from 1 (no wilting) to 4 (complete wilting) to generated a sales index rating. A rating of 2.5 was the point at which a plant was determined to be unmarketable and the previous day was recorded as the shelf life of that plant in days. Yellow leaf number was counted at 3 days after chemical treatment. Leaf transpiration rate was measured after treatment using a LI-1600 Steady State Porometer (LI-Cor, Lincoln, Nebr.). The transpiration rate of each treatment was calculated as the percentage of that of control at each day to reduce day-to-day variation caused by changes of environmental condition such as light intensity, humidity, and temperature."}, "[2]": {"system": "Pansy plants", "assay": "Pansy leaf transpiration rate (LI-1600 Steady State Porometer)", "type": "in vivo", "conditions": "for Transpiration rate (% of control): Matrix Premium Rose", "procedure": "as §1, §2"}}}
{"substance": "(S)-5-(1-hydroxy-2,6,6,-trimethyl-4-oxo-2-cyclohexen-1-yl)-3-methyl-(2Z,4E)-pentadienoic acid [ABA]", "values": [{"measurement": "Shelf life", "setting": "[1]; 0.3 mg ABA, Matrix Yellow, Table 5", "result": 4.8, "unit": "days"}, {"measurement": "Shelf life", "setting": "[1]; 0.3 mg ABA, Matrix Yellow, Table 6", "result": 4.8, "unit": "days"}, {"measurement": "Shelf life", "setting": "[1]; 0.3 mg ABA, Matrix Yellow, Table 17", "result": 3.2, "unit": "days"}, {"measurement": "Shelf life", "setting": "[1]; 1 mg, Matrix Orange, drought, Table 1", "result": 5.0, "unit": "days"}, {"measurement": "Shelf life", "setting": "[1]; 3 mg ABA, Colossus Formula Mix, no water, Table 20", "result": 5.2, "unit": "days"}, {"measurement": "Shelf life", "setting": "[1]; 3 mg ABA, Delta Premium Pure White, Table 21", "result": 8.3, "unit": "days"}, {"measurement": "Shelf life", "setting": "[1]; 3 mg ABA, Delta Premium Pure White, Table 22", "result": 5.7, "unit": "days"}, {"measurement": "Shelf life", "setting": "[1]; 3 mg ABA, Delta Premium Pure White, Table 24", "result": 5.2, "unit": "days"}, {"measurement": "Shelf life", "setting": "[1]; 3 mg ABA, Matrix Yellow, Table 5", "result": 5.7, "unit": "days"}, {"measurement": "Shelf life", "setting": "[1]; 3 mg ABA, Matrix Yellow, Table 6", "result": 6.0, "unit": "days"}, {"measurement": "Shelf life", "setting": "[1]; 3 mg ABA, Matrix Yellow, Table 17", "result": 4.3, "unit": "days"}, {"measurement": "Shelf life", "setting": "[1]; 3 mg ABA, no water, Matrix Premium Rose, Table 13", "result": 4.8, "unit": "days"}, {"measurement": "Shelf life", "setting": "[1]; 3 mg, Clear Sky Yellow, drought, Table 8", "result": 6.5, "unit": "days"}, {"measurement": "Shelf life", "setting": "[1]; 3 mg, Crown Azure Blue, drought, Table 9", "result": 5.2, "unit": "days"}, {"measurement": "Shelf life", "setting": "[1]; 3 mg, Delta Premium Pure Golden Yellow, advanced seedling stage (1 month old), drought, Table 4", "result": 4.2, "unit": "days"}, {"measurement": "Shelf life", "setting": "[1]; 3 mg, Delta Premium Pure Golden Yellow, drought, Table 3", "result": 5.3, "unit": "days"}, {"measurement": "Shelf life", "setting": "[1]; 3 mg, Matrix Orange, drought, Table 1", "result": 5.8, "unit": "days"}, {"measurement": "Shelf life", "setting": "[1]; 3 mg, Matrix Orange, drought, Table 2", "result": 5.2, "unit": "days"}, {"measurement": "Shelf life", "setting": "[1]; 3 mg, Matrix Yellow, drought, Table 7", "result": 7.7, "unit": "days"}, {"measurement": "Shelf life", "setting": "[1]; 3 mg, Matrix Yellow, drought, Table 10", "result": 4.3, "unit": "days"}, {"measurement": "Shelf life", "setting": "[1]; 10 mg, Delta Premium Pure Golden Yellow, advanced seedling stage (1 month old), drought, Table 4", "result": 5.7, "unit": "days"}, {"measurement": "Shelf life", "setting": "[1]; 10 mg, Delta Premium Pure Golden Yellow, drought, Table 3", "result": 6.5, "unit": "days"}, {"measurement": "Shelf life", "setting": "[1]; 10 mg, Matrix Orange, drought, Table 1", "result": 7.0, "unit": "days"}, {"measurement": "Shelf life", "setting": "[1]; 10 mg, Matrix Orange, drought, Table 2", "result": 6.7, "unit": "days"}, {"measurement": "Shelf life", "setting": "[1]; 30 mg ABA, Colossus Formula Mix, Table 18", "result": 6.2, "unit": "days"}, {"measurement": "Shelf life", "setting": "[1]; 30 mg ABA, Colossus Formula Mix, no water, Table 20", "result": 6.5, "unit": "days"}, {"measurement": "Shelf life", "setting": "[1]; 30 mg ABA, Delta Premium Pure White, Table 19", "result": 8.7, "unit": "days"}, {"measurement": "Shelf life", "setting": "[1]; 30 mg ABA, Delta Premium Pure White, Table 21", "result": 10.2, "unit": "days"}, {"measurement": "Shelf life", "setting": "[1]; 30 mg ABA, Delta Premium Pure White, Table 22", "result": 9.2, "unit": "days"}, {"measurement": "Shelf life", "setting": "[1]; 30 mg ABA, Delta Premium Pure White, Table 23", "result": 8.2, "unit": "days"}, {"measurement": "Shelf life", "setting": "[1]; 30 mg ABA, Delta Premium Pure White, Table 24", "result": 7.2, "unit": "days"}, {"measurement": "Shelf life", "setting": "[1]; 30 mg ABA, Matrix Premium Rose, no water from 1 day after ABA, Table 11", "result": 7.2, "unit": "days"}, {"measurement": "Shelf life", "setting": "[1]; 30 mg ABA, Matrix Yellow, Table 5", "result": 10.2, "unit": "days"}, {"measurement": "Shelf life", "setting": "[1]; 30 mg ABA, Matrix Yellow, Table 6", "result": 10.8, "unit": "days"}, {"measurement": "Shelf life", "setting": "[1]; 30 mg ABA, Matrix Yellow, Table 17", "result": 8.3, "unit": "days"}, {"measurement": "Shelf life", "setting": "[1]; 30 mg ABA, no water, Matrix Premium Rose, Table 13", "result": 7.2, "unit": "days"}, {"measurement": "Shelf life", "setting": "[1]; 30 mg, Clear Sky Yellow, drought, Table 8", "result": 7.8, "unit": "days"}, {"measurement": "Shelf life", "setting": "[1]; 30 mg, Crown Azure Blue, drought, Table 9", "result": 6.7, "unit": "days"}, {"measurement": "Shelf life", "setting": "[1]; 30 mg, Delta Premium Pure Golden Yellow, advanced seedling stage (1 month old), drought, Table 4", "result": 7.7, "unit": "days"}, {"measurement": "Shelf life", "setting": "[1]; 30 mg, Delta Premium Pure Golden Yellow, drought, Table 3", "result": 8.0, "unit": "days"}, {"measurement": "Shelf life", "setting": "[1]; 30 mg, Matrix Orange, drought, Table 1", "result": 8.0, "unit": "days"}, {"measurement": "Shelf life", "setting": "[1]; 30 mg, Matrix Orange, drought, Table 2", "result": 9.2, "unit": "days"}, {"measurement": "Shelf life", "setting": "[1]; 30 mg, Matrix Yellow, drought, Table 7", "result": 9.3, "unit": "days"}, {"measurement": "Shelf life", "setting": "[1]; 30 mg, Matrix Yellow, drought, Table 10", "result": 8.0, "unit": "days"}, {"measurement": "Transpiration rate (% of control)", "setting": "[2]; 3 mg ABA, no water, day 1 after treatment, Table 14", "result": "22 % of control"}, {"measurement": "Transpiration rate (% of control)", "setting": "[2]; 3 mg ABA, no water, day 2 after treatment, Table 14", "result": "15 % of control"}, {"measurement": "Transpiration rate (% of control)", "setting": "[2]; 3 mg ABA, no water, day 3 after treatment, Table 14", "result": "34 % of control"}, {"measurement": "Transpiration rate (% of control)", "setting": "[2]; 3 mg ABA, no water, day 4 after treatment, Table 14", "result": "35 % of control"}, {"measurement": "Transpiration rate (% of control)", "setting": "[2]; 3 mg ABA, no water, day 5 after treatment, Table 14", "result": "27 % of control"}, {"measurement": "Transpiration rate (% of control)", "setting": "[2]; 3 mg ABA, watered, day 1 after treatment, Table 14", "result": "23 % of control"}, {"measurement": "Transpiration rate (% of control)", "setting": "[2]; 3 mg ABA, watered, day 2 after treatment, Table 14", "result": "18 % of control"}, {"measurement": "Transpiration rate (% of control)", "setting": "[2]; 3 mg ABA, watered, day 3 after treatment, Table 14", "result": "36 % of control"}, {"measurement": "Transpiration rate (% of control)", "setting": "[2]; 3 mg ABA, watered, day 4 after treatment, Table 14", "result": "43 % of control"}, {"measurement": "Transpiration rate (% of control)", "setting": "[2]; 3 mg ABA, watered, day 5 after treatment, Table 14", "result": "59 % of control"}, {"measurement": "Transpiration rate (% of control)", "setting": "[2]; 3 mg ABA, watered, day 7 after treatment, Table 14", "result": "76 % of control"}, {"measurement": "Transpiration rate (% of control)", "setting": "[2]; 3 mg ABA, watered, day 10 after treatment, Table 14", "result": "97 % of control"}, {"measurement": "Transpiration rate (% of control)", "setting": "[2]; 3 mg ABA, watered, day 15 after treatment, Table 14", "result": "97 % of control"}, {"measurement": "Transpiration inhibition", "setting": "[2]; 3 mg ABA, watered, within 5 days after treatment", "result": "more than 50%"}, {"measurement": "Transpiration rate (% of control)", "setting": "[2]; 30 mg ABA, day 1 after ABA treatment, Table 12", "result": "6 % of control"}, {"measurement": "Transpiration rate (% of control)", "setting": "[2]; 30 mg ABA, day 2 after ABA treatment, Table 12", "result": "8 % of control"}, {"measurement": "Transpiration rate (% of control)", "setting": "[2]; 30 mg ABA, day 3 after ABA treatment, Table 12", "result": "11 % of control"}, {"measurement": "Transpiration rate (% of control)", "setting": "[2]; 30 mg ABA, no water, day 1 after treatment, Table 14", "result": "7 % of control"}, {"measurement": "Transpiration rate (% of control)", "setting": "[2]; 30 mg ABA, no water, day 2 after treatment, Table 14", "result": "8 % of control"}, {"measurement": "Transpiration rate (% of control)", "setting": "[2]; 30 mg ABA, no water, day 3 after treatment, Table 14", "result": "8 % of control"}, {"measurement": "Transpiration rate (% of control)", "setting": "[2]; 30 mg ABA, no water, day 4 after treatment, Table 14", "result": "15 % of control"}, {"measurement": "Transpiration rate (% of control)", "setting": "[2]; 30 mg ABA, no water, day 5 after treatment, Table 14", "result": "21 % of control"}, {"measurement": "Transpiration rate (% of control)", "setting": "[2]; 30 mg ABA, no water, day 7 after treatment, Table 14", "result": "27 % of control"}, {"measurement": "Transpiration rate (% of control)", "setting": "[2]; 30 mg ABA, watered, day 1 after treatment, Table 14", "result": "7 % of control"}, {"measurement": "Transpiration rate (% of control)", "setting": "[2]; 30 mg ABA, watered, day 2 after treatment, Table 14", "result": "7 % of control"}, {"measurement": "Transpiration rate (% of control)", "setting": "[2]; 30 mg ABA, watered, day 3 after treatment, Table 14", "result": "9 % of control"}, {"measurement": "Transpiration rate (% of control)", "setting": "[2]; 30 mg ABA, watered, day 4 after treatment, Table 14", "result": "15 % of control"}, {"measurement": "Transpiration rate (% of control)", "setting": "[2]; 30 mg ABA, watered, day 5 after treatment, Table 14", "result": "21 % of control"}, {"measurement": "Transpiration rate (% of control)", "setting": "[2]; 30 mg ABA, watered, day 7 after treatment, Table 14", "result": "28 % of control"}, {"measurement": "Transpiration rate (% of control)", "setting": "[2]; 30 mg ABA, watered, day 10 after treatment, Table 14", "result": "56 % of control"}, {"measurement": "Transpiration rate (% of control)", "setting": "[2]; 30 mg ABA, watered, day 15 after treatment, Table 14", "result": "99 % of control"}, {"measurement": "Transpiration inhibition", "setting": "[2]; 30 mg ABA, watered, through 10 days after treatment", "result": "more than 50%"}]}
